Measurements published in US11047861B2, “Cellular assays with a molecular endpoint measured by SAMDI mass spectrometry” (NORTHWESTERN UNIVERSITY, priority 2015, dated 2021).

Columns and labels:
[1] = system: protein tyrosine phosphatase (PTP); test: TCAL-SAMDI assay of PTP activity, inhibitors applied to cells cultured on the monolayer; format: cell-based
Experimental: HeLa cells and MDA-MB-231 cells were obtained from ATCC and cultured in αMEM (for HeLa cells) or high-glucose DMEM (for MDA-MB-231 cells) medium supplemented with 10% fetal bovine serum, glutamax, penicillin and streptomycin. All cells were cultured in a humidified incubator at 37° C. and CO2. Cells were trypsinized and suspended in media, and the average number of cells per μL was counted using a hemocytometer and Countess automated cell counter (Life Technologies), and cell concentrations were adjusted to seed the desired number of cells per spot in 3 μL media. Cells were cultured on the monolayers presenting RGD and peptide substrates on steel plates or glass slides for two hours under standard growth conditions. For PTP activity assays, cells were cultured for two hours before addition of inhibitors, if any. […] A 30 mg/mL solution of 2,4,6-trihydroxyacetophenone in acetone was delivered to each spot on the array and the surfaces were analyzed using an AB Sciex 5800 MALDI TOF/TOF instrument in positive reflector mode. The area under the curves for the [M+H]^+ peaks of disulfides was measured with the Data Explorer software (AB Sciex). […]
MDA-MB-231 cells were seeded at 75 cells per spot on monolayers presenting phosphatase peptide substrates and cyclic RGD as described above. […] IC50 values and curves were determined using GraphPad prism software.

[2] = system: protein tyrosine phosphatase (PTP); test: SAMDI assay of PTP activity in cell lysate treated with inhibitor and applied to the monolayer; format: biochemical; conditions: treatment of MDA-MB-231 cell lysate (rather than cells), read-out: PTP inhibition, IC50
Experimental: MDA-MB-231 cells were lysed using the lysis buffer containing protease inhibitor described above to achieve the equivalent of 75 cells per 1.5 μL, after mixing with inhibitor solutions. Inhibitor solutions in lysis buffer at concentrations ranging from 0 to 640 μM were added to the lysate and 1.5 μL of the mixture was spotted on monolayers presenting cyclic RGD and phosphatase substrate. The reaction was carried out for 1 hour at 37° C. in a humidified chamber. To evaluate dose-response inhibition under standard culture conditions, MDA-MB-231 cells were plated on a 96-well plate at a density of 6,400 cells per well and cultured for two hours. Culture medium containing inhibitors at final concentrations ranging from 0 to 300 μM and 1% DMSO were delivered to each well and culture proceeded for another two hours. The mixture containing media and inhibitor was removed from each well and centrifuged. Lysis buffer containing protease inhibitor was applied to each well in the plate and incubated for 10 minutes at room temperature. The lysate was collected and added to the corresponding cell pellet for each inhibitor concentration sample. […] Protein concentrations were measured using a BCA assay (Santa Cruz Biotechnology), following manufacturer instructions. […] IC50 values and curves were determined using GraphPad prism software.

Compound `O=C(CBr)c1ccc(O)cc1` [PTPI-I] has an IC50 ([1]; treatment of cultured MDA-MB-231 cells on monolayer for two hours, then lysis in place, read-out: inhibition of PTP activity, IC50) of 14 µM and an IC50 [2] of 83 µM.

`O=C1C(=NNc2ccc(S(=O)(=O)O)cc2)C(c2ccc([N+](=O)[O-])cc2)=NN1c1ccccc1` [PHPS1] was tested, and the PTP inhibition ([1]; treatment of cells, inhibitor concentration up to 160 μM) was “did not show PTP inhibition” and the IC50 [2] was 75 µM.
